According to patent US20050153943A1, “Methods of simultaneously treating mucositis and fungal infection” (priority 2002, published 2005):
In brackets after ≈: the same amount, converted by molar mass. Read-outs that look alike come from different tables or passages of the source.

Legend:
[1] = system: BALB/c 3T3 (CCL-163) cells; assay: 3T3 phototoxicity assay (Neutral Red uptake, with/without UVA); details: 5 J/cm^2 UVA vs dark; for PIF 1 (photoirritancy factor, IC50(-UVA)/IC50(+UVA), earlier software): 1 = no measurable phototoxicity, >5 phototoxic potential; for MPE (mean photo effect): <0.1 nonphototoxin, 0.1 to <0.15 probable, >=0.15 clear phototoxin
[2] = system: Penicillium sp. (laboratory isolate); assay: Fungal growth on SABHI agar containing CMT (Example 38); type: cell-based; details: for Growth at 25 μg/ml compared to control at 24 hrs incubation / Growth at 25 μg/ml compared to control at 48 hours: 30° C., growth grade
Experimental: (§1) The following fungi were inoculated onto potato dextrose agar (PDA) from stock cultures and incubated aerobically at 30° C.: Aspergillus [NT] 1022, Penicillium sp. (laboratory isolate), Candida albicans, ATCC 14053, and Rhizopus sp. […] The conidia were suspended in 0.9% saline and the turbidity was adjusted to match a 0.5 MacFarland standard (equivalent to approximately 1.5×10^8 cells). Candida albicans was suspended in saline and adjusted to 0.5 MacFarland in a similar manner. These suspensions were diluted 1:100 in sterile 0.9% saline. SABHI Agar (Difco) pH 7.0 was prepared in 100 ml amounts and sterilized at 121° C. for 15 min. […] SABHI Agar plates of each CMT and SAHBI agar without CMT using dimethylsulphoxide (DMSO) as a control were inoculated with 10 μl of conidia suspension of Aspergillus fumigatus, Penicillium sp. and Rhizopus sp. and 10 μl suspension of Candida albicans prepared as described above. The plates were then incubated aerobically for 24 hour and for 48 hours at 30° C. The results are set forth in Table 1 (24 hr. incubation) and Table 2 (48 hr. incubation). [table]

[3] = system: Candida albicans, ATCC 14053; assay: as above; type: cell-based; details: for Growth at 25 μg/ml compared to control at 24 hrs incubation / Growth at 25 μg/ml compared to control at 48 hours: 30° C., growth grade
Experimental: as §1

[4] = system: Rhizopus sp.; assay: as above; type: cell-based; details: for Growth at 25 μg/ml compared to control at 24 hrs incubation / Growth at 25 μg/ml compared to control at 48 hours: 30° C., growth grade
Experimental: as §1

[5] = system: Aspergillus fumigatus ATCC 1022; assay: as above; type: cell-based; details: for Growth at 25 μg/ml compared to control at 48 hours / Growth at 25 μg/ml compared to control at 24 hrs incubation: 30° C., growth grade
Experimental: as §1

[6] = system: Tricothecium Species; assay: IC50 and MIC on microplate agar gels (Example 40); type: cell-based; details: agar gel, 0.25-4.00 μg/ml, 30° C., 24 hours, NI = no detectable inhibition
Experimental: (§2) Each drug was dissolved in DMSO (1.0 mg/ml) as a stock solution and stored at −20° C. Just prior to use, each stock solution was thawed and diluted in DMSO to produce 6 different 100× concentrations. Potato dextrose agar was dissolved in distilled water (39 g/L) and sterilized at […] (250° F.) for 15 min. The agar solution was mixed with each drug (in a water bath at 60° C.) to make a series of final concentrations, i.e. 0.00, 0.25, 0.50, 1.00, 2.00, 4.00 μg/ml. The mixtures were then transferred to 24-well plates (1 ml/well). After the gel had formed, the fungus in PBS (spore count=1-5×10^4/ml) was inoculated by pipetting 10 μl onto each gel. The plates were incubated at 30° C. for different times, depending on the requirement of each species, e.g. 24 hours for Penicillium, Rhizopus, Tricothecium, Ulocladium, Absidia, Aspergilus, Caindida, Cunninghamella, 3 days for Scedosporium, and 5 days for Fonsecae and Phialophora.
(§3) “*” indicates better than or similar results to Amphotericin B. “NI” indicates no detectable inhibition.

[7] = system: Ulocladium Species; assay: IC50 and MIC on microplate agar gels (Example 40); type: cell-based; details: agar gel, 0.25-4.00 μg/ml, 30° C., 24 hours, NI = no detectable inhibition
Experimental: as §2, §3

[8] = system: Scedosporium Apiospermum; assay: IC50 and MIC on microplate agar gels (Example 40); type: cell-based; details: agar gel, 0.25-4.00 μg/ml, 30° C., 3 days, NI = no detectable inhibition
Experimental: as §2, §3

[9] = system: Penicillium Species; assay: IC50 and MIC on microplate agar gels (Example 40); type: cell-based; details: agar gel, 0.25-4.00 μg/ml, 30° C., 24 hours, NI = no detectable inhibition
Experimental: as §2, §3

[10] = system: 11 different species of fungi; assay: Summary of Example 40 over the whole panel; type: cell-based; details: 11 tested fungi, up to 4.00 μg/ml
Experimental: as §2, §3

[11] = system: eleven different species of fungi; details: cited from earlier work
[12] = system: Cunninghamella Species; assay: IC50 and MIC on microplate agar gels (Example 40); type: cell-based; details: Cunninghamella; agar gel, 0.25-4.00 μg/ml, 30° C., 24 hours; NI = no detectable inhibition; read-out: IC50
Experimental: as §2, §3

[13] = system: Phialophora Verrucosa; assay: IC50 and MIC on microplate agar gels (Example 40); type: cell-based; details: Phialophora verrucosa, 120 h; agar gel, 0.25-4.00 μg/ml, 30° C., 5 days; NI = no detectable inhibition; read-out: IC50
Experimental: as §2, §3

[14] = system: Aspergilus Fumigatus; assay: IC50 and MIC on microplate agar gels (Example 40); type: cell-based; details: agar gel, 0.25-4.00 μg/ml, 30° C., 24 hours; NI = no detectable inhibition; read-out: IC50
Experimental: as §2, §3

[15] = system: Candida Albicans; assay: IC50 and MIC on microplate agar gels (Example 40); type: cell-based; details: Candida albicans; agar gel, 0.25-4.00 μg/ml, 30° C., 24 hours; NI = no detectable inhibition; read-out: IC50
Experimental: as §2, §3

[16] = system: Rhizopus Species; assay: IC50 and MIC on microplate agar gels (Example 40); type: cell-based; details: Rhizopus; agar gel, 0.25-4.00 μg/ml, 30° C., 24 hours; NI = no detectable inhibition; read-out: IC50
Experimental: as §2, §3

[17] = system: Fonsecae Species; assay: IC50 and MIC on microplate agar gels (Example 40); type: cell-based; details: 120 h; agar gel, 0.25-4.00 μg/ml, 30° C., 5 days; NI = no detectable inhibition; read-out: IC50
Experimental: as §2, §3

[18] = system: Absidia Species; assay: IC50 and MIC on microplate agar gels (Example 40); type: cell-based; details: Absidia; agar gel, 0.25-4.00 μg/ml, 30° C., 24 hours; NI = no detectable inhibition; read-out: IC50
Experimental: as §2, §3

Compound | Growth at 25 μg/ml compared to control at 24 hrs incubation [2] | Growth at 25 μg/ml compared to control at 48 hours [2] | Growth at 25 μg/ml compared to control at 24 hrs incubation [3] | Growth at 25 μg/ml compared to control at 48 hours [3] | Growth at 25 μg/ml compared to control at 24 hrs incubation [4] | Growth at 25 μg/ml compared to control at 48 hours [4] | Growth at 25 μg/ml compared to control at 48 hours [5] | Growth at 25 μg/ml compared to control at 24 hrs incubation [5] | further results
2-CONHCH2-pyrrolidin-1-yl-4-dedimthylaminodoxycycline [COL 807] |  |  |  |  |  |  |  |  | PIF 1 (photoirritancy factor, IC50(-UVA)/IC50(+UVA), earlier software) [1]: 40.4; MPE (mean photo effect) [1]: 0.382
CC1c2cccc(O)c2C(=O)C2=C(O)C3(O)C(=O)C(C(N)=O)=C(O)CC3C(O)C21 (stereo not shown) [COL 8, 4-dedimethylaminodoxycycline] | 3 (25% reduction in growth of colonies compared to control.) | 4 (Level of growth in the absence of anti-fungal agent (control).) | 4 (Level of growth in the absence of anti-fungal agent (control).) | 4 (Level of growth in the absence of anti-fungal agent (control).) | 4 (Level of growth in the absence of anti-fungal agent (control).) | 4 (Level of growth in the absence of anti-fungal agent (control).) | 4 (Level of growth in the absence of anti-fungal agent (control).) |  | IC50 [6]: 0.7 µg/mL (≈ 1.74 µM); MIC [6]: 2.0 µg/mL (≈ 4.98 µM); IC50 [7]: 2.0 µg/mL (≈ 4.98 µM); MIC [7]: >4 µg/mL; IC50 [8]: 2.0 µg/mL (≈ 4.98 µM); MIC [8]: >4 µg/mL; IC50 [9]: 2.0 µg/mL (≈ 4.98 µM); MIC [9]: >4 µg/mL; Antifungal activity over the panel (summary in words) [10]: had effects on some of these fungi; Anti-fungal activity in vitro (Lu et al.) [11]: weak or no anti-fungal activity
O=C(NCN1CCNCC1)C1=C(O)CC2CC3Cc4cccc(O)c4C(=O)C3=C(O)C2(O)C1=O (stereo not shown) [COL 315, 2-CONHCH2-piperazin-1-yl-6-demethyl-6-deoxy-4-dedimethylaminotetracycline] | 0 (complete inhibition of growth.) | 0 (complete inhibition of growth.) | 0 (complete inhibition of growth.) | 0 (complete inhibition of growth.) | 1 (75% reduction in growth in colonies compared to control.) | 1 (75% reduction in growth in colonies compared to control.) | 0 (complete inhibition of growth.) | 0 (complete inhibition of growth.) | Anti-fungal activity (summary in words) ([2]; 25 μg/ml agar, Example 38): activity against all the fungi tested; Anti-fungal activity (summary in words) ([3]; 25 μg/ml agar, Example 38): activity against all the fungi tested; Anti-fungal activity (summary in words) ([4]; 25 μg/ml agar, Example 38): activity against all the fungi tested; Anti-fungal activity (summary in words) ([5]; 25 μg/ml agar, Example 38): activity against all the fungi tested
C[C@H]1c2cccc(O)c2C(=O)C2=C(O)[C@]3(O)C(=O)C(C(N)=O)=C(O)[C@@H](N(C)C)[C@@H]3[C@@H](O)[C@@H]21 [Doxycycline, 6α-deoxy-5-hydroxytetracycline, reference compound] |  |  |  |  |  |  |  |  | IC50 ([6]; read-out: IC50): 4 µg/mL (≈ 9 µM); MIC ([6]; read-out: MIC): > 4 µg/mL; IC50 [12]: > 4 µg/mL; IC50 ([7]; read-out: IC50): > 4 µg/mL; IC50 [13]: > 4 µg/mL; IC50 [14]: > 4 µg/mL; IC50 [15]: > 4 µg/mL; IC50 [16]: > 4 µg/mL; IC50 [17]: > 4 µg/mL; IC50 [18]: > 4 µg/mL; IC50 ([8]; Scedosporium apiospermum, 72 h, read-out: IC50): > 4 µg/mL; IC50 ([9]; Penicillium, read-out: IC50): > 4 µg/mL
CC(=O)Nc1cc(N(C)C)c2c(c1O)C(=O)C1=C(O)C3(O)C(=O)C(C(N)=O)=C(O)CC3CC1C2.O=S(=O)(O)O (stereo not shown) [Example 3, 9-Acetamido-4-dedimethylamino-7-dimethylamino-6-demethyl-6-deoxytetracycline sulfate] | 0 (complete inhibition of growth.) | 4 (Level of growth in the absence of anti-fungal agent (control).) | 1 (75% reduction in growth in colonies compared to control.) | 4 (Level of growth in the absence of anti-fungal agent (control).) | 3 (25% reduction in growth of colonies compared to control.) | 1 (75% reduction in growth in colonies compared to control.) | 4 (Level of growth in the absence of anti-fungal agent (control).) | 0 (complete inhibition of growth.) | 
CN(C)c1cc([N+]#N)c(O)c2c1CC1CC3CC(O)=C(C(N)=O)C(=O)C3(O)C(O)=C1C2=O.O=S(=O)([O-])O (stereo not shown) [Example 4, 4-Dedimethylamino-7-dimethylamino-6-demethyl-6-deoxy-9-diazoniumtetracycline sulfate] | 3 (25% reduction in growth of colonies compared to control.) | 0 (complete inhibition of growth.) | 1 (75% reduction in growth in colonies compared to control.) | 4 (Level of growth in the absence of anti-fungal agent (control).) | 4 (Level of growth in the absence of anti-fungal agent (control).) | 4 (Level of growth in the absence of anti-fungal agent (control).) | 1 (75% reduction in growth in colonies compared to control.) | 0 (complete inhibition of growth.) | 
CN(C)[C@@H]1C(O)=C(C(N)=O)C(=O)[C@@]2(O)C(O)=C3C(=O)c4c(O)cccc4[C@@](C)(O)[C@H]3C[C@@H]12 [Tetracycline, reference compound] |  |  |  |  |  |  |  |  | PIF 1 (photoirritancy factor, IC50(-UVA)/IC50(+UVA), earlier software) [1]: 5.38; MPE (mean photo effect) [1]: 0.340
